Assay results reported in patent US4695545A, “Culture and process for producing A41030 antibiotics” (Eli Lilly and Company, priority 1984, dated 1987).

Columns and labels:
[1] = system: Bacteroides melaninogenicus; assay: MIC anaerobic bacteria, agar-dilution; type: cell-based
Solubility in solvents = type: physicochemical; details: qualitative
Text: As many as seven antibiotic factors are recovered from the fermentation and are obtained as a mixture, the A41030 complex. It will be recognized that the ratio of the factors in the A41030 complex will vary, depending upon the fermentation conditions used. The individual factors A, B, C, D, E, F, and G are separated and isolated as individual compounds, as hereinafter described.

Clostridium septicum = assay: MIC anaerobic bacteria, agar-dilution; type: cell-based; details: Clostridium septicum 1128
Bacteroides corrodens = assay: MIC anaerobic bacteria, agar-dilution; type: cell-based; details: Bacteroides corrodens 1874
Peptococcus prevoti = assay: MIC anaerobic bacteria, agar-dilution; type: cell-based; details: Peptococcus prevoti 1281
Streptococcus pneumoniae = assay: MIC aerobic bacteria, standard agar-dilution assay; type: cell-based; details: Streptococcus pneumoniae Park I, 24 hours
Haemophilus influenzae = assay: MIC aerobic bacteria, standard agar-dilution assay; type: cell-based
[2] = Electrometric titration (pKa); type: physicochemical; details: electrometric titration in 66% dimethylformamide in water; stated as possible
Text: Antibiotic A41030 factor A is a white, crystalline solid.

[3] = system: Staphylococcus epidermidis; assay: MIC aerobic bacteria, standard agar-dilution assay; type: cell-based
Bacteroides fragilis = assay: MIC anaerobic bacteria, agar-dilution; type: cell-based
Propionibacterium acnes = assay: MIC anaerobic bacteria, agar-dilution; type: cell-based; details: Propionibacterium acnes 79; agar-dilution (Table 9)
[4] = system: Peptostreptococcus intermedius; assay: MIC anaerobic bacteria, agar-dilution; type: cell-based; details: Peptostreptococcus intermedius 1264
Staphylococcus aureus = assay: MIC aerobic bacteria, standard agar-dilution assay; type: cell-based; details: Staphylococcus aureus S13E; agar-dilution, 24 hours
Fusobacterium symbiosum = assay: MIC anaerobic bacteria, agar-dilution; type: cell-based; details: Fusobacterium symbiosum 1470
Bacteroides vulgatis = assay: MIC anaerobic bacteria, agar-dilution; type: cell-based; details: Bacteroides vulgatis 1211
[5] = system: Streptococcus sp. Group D; assay: MIC aerobic bacteria, standard agar-dilution assay; type: cell-based
[6] = system: Bacteroides thetaiotaomicron; assay: MIC anaerobic bacteria, agar-dilution; type: cell-based; details: Bacteroides thetaiotaomicron 1438
Clostridium difficile [7] = assay: MIC anaerobic bacteria, agar-dilution; type: cell-based; details: Clostridium difficile 2994; agar-dilution (Table 9)
Escherichia coli = assay: MIC aerobic bacteria, standard agar-dilution assay; type: cell-based; details: Escherichia coli TEM, 24 hours
[8] = system: Peptostreptococcus anaerobius; assay: MIC anaerobic bacteria, agar-dilution; type: cell-based; details: Peptostreptococcus anaerobius 1428
Eubacterium aerofaciens = assay: MIC anaerobic bacteria, agar-dilution; type: cell-based; details: Eubacterium aerofaciens 1235
Streptococcus pyogenes = assay: MIC aerobic bacteria, standard agar-dilution assay; type: cell-based; details: Streptococcus pyogenes C203, 24 hours
Clostridium difficile [9] = assay: MIC against Clostridium difficile strains, agar-dilution; type: cell-based
Text: The A41030 antibiotic factors A, B, C, D, E, F, and G, are also active against a number of strains of Clostridium difficile, as determined by the agardilution method.

Clostridium perfringens = type: cell-based; details: Clostridium perfringens 81; agar-dilution

A41030 factor D
MIC ([1]; Bacteroides melaninogenicus 1856/28): > 64 µg/mL
MIC ([1]; Bacteroides melaninogenicus 2736): 0.5 µg/mL
solubility (solvents) (Solubility in solvents): soluble in the same solvents as factor A
MIC (Clostridium septicum): 0.25 µg/mL
MIC (Bacteroides corrodens): 32 µg/mL
MIC (Peptococcus prevoti): 0.25 µg/mL
MIC (Streptococcus pneumoniae): 0.5 µg/mL
MIC (Haemophilus influenzae; Haemophilus influenzae 76, 24 hours): 8 µg/mL
MIC (Haemophilus influenzae; Haemophilus influenzae C.L., 24 hours): 8 µg/mL
possibly additional pKa's [2]: > 10
MIC ([3]; Staphylococcus epidermidis EPI1, 24 hours): 0.25 µg/mL
MIC ([3]; Staphylococcus epidermidis EPI2, 24 hours): 1 µg/mL
MIC (Bacteroides fragilis; Bacteroides fragilis 111): 32 µg/mL
MIC (Bacteroides fragilis; Bacteroides fragilis 1877): 32 µg/mL
MIC (Bacteroides fragilis; Bacteroides fragilis 1936B): 32 µg/mL
MIC (Propionibacterium acnes): 0.25 µg/mL
MIC [4]: 1.0 µg/mL
MIC (Staphylococcus aureus): 0.25 µg/mL
MIC (Fusobacterium symbiosum): 0.5 µg/mL
MIC (Bacteroides vulgatis): 32 µg/mL
MIC ([5]; Streptococcus sp. Group D 9960, 24 hours): 1 µg/mL
MIC ([5]; Streptococcus sp. Group D X66, 24 hours): 1 µg/mL
MIC [6]: 32 µg/mL
MIC (Clostridium difficile [7]): 0.5 µg/mL
MIC (Escherichia coli): 64 µg/mL
MIC [8]: 0.5 µg/mL
MIC (Eubacterium aerofaciens): 0.5 µg/mL
MIC (Streptococcus pyogenes): 0.5 µg/mL
MIC (Clostridium difficile [9]; Clostridium difficile 78): ≤ 0.25 µg/mL
MIC (Clostridium difficile [9]; Clostridium difficile 107B): ≤ 0.25 µg/mL
MIC (Clostridium difficile [9]; Clostridium difficile 111F): ≤ 0.25 µg/mL
MIC (Clostridium difficile [9]; Clostridium difficile 1153): 1.0 µg/mL
MIC (Clostridium difficile [9]; Clostridium difficile 2634): 0.5 µg/mL
MIC (Clostridium difficile [9]; Clostridium difficile 3424-5B): 0.5 µg/mL
MIC (Clostridium difficile [9]; Clostridium difficile 3816): 0.5 µg/mL
MIC (Clostridium difficile [9]; Clostridium difficile 3950D): 0.5 µg/mL
MIC (Clostridium difficile [9]; Clostridium difficile 6890): 0.5 µg/mL
MIC (Clostridium difficile [9]; Clostridium difficile 8484): ≤ 0.25 µg/mL
MIC (Clostridium difficile [9]; Clostridium difficile A-194): ≤ 0.25 µg/mL
MIC (Clostridium difficile [9]; Clostridium difficile A-195): ≤ 0.25 µg/mL
MIC (Clostridium difficile [9]; Clostridium difficile A-196): 0.5 µg/mL
MIC (Clostridium difficile [9]; Clostridium difficile A-279): ≤ 0.25 µg/mL
MIC (Clostridium difficile [9]; Clostridium difficile A-280): ≤ 0.25 µg/mL
MIC (Clostridium difficile [9]; Clostridium difficile A-281): 0.5 µg/mL
MIC (Clostridium difficile [9]; Clostridium difficile WAL-2112): ≤ 0.25 µg/mL
MIC (Clostridium difficile [9]; Clostridium difficile WAL-3657): ≤ 0.25 µg/mL
MIC (Clostridium difficile [9]; Clostridium difficile WAL-4268): ≤ 0.25 µg/mL
MIC (Clostridium perfringens): 0.5 µg/mL
